pIC50: −log10 of the molar value. Entries after “also recorded” stand apart in the source; their conditions may differ.
Columns and labels:
SW480 = assay: Antimitotic effects (G2/M cell cycle block, DNA staining, ModFit) on SW480; type: cell-based, human
Source text: (§1) For the initial studies two colon carcinoma cell lines (LIM1215 and SW480) and two breast cancer cell lines (MDA-MB-231 and MCF-7) were used. Taxol was used as comparator in these experiments (Table 1).

MCF-7 [1] = assay: Antimitotic effects (G2/M cell cycle block, DNA staining, ModFit) on MCF-7; type: cell-based, human
Source text: as §1

MDA-MB-231 = assay: MTT cell proliferation assay, MDA-MB-231; type: cell-based; conditions: 72 h; MDA-MB-231 human breast carcinoma; MTT after 3 days of incubation; read-out: IC50, inhibition of proliferation
Method: (§2) Compound 2 was tested on a series of cell lines to determine its activity and selectivity (Table 2). Cell proliferation was measured using the MTT assay (for protocol see Example 2.6) after 3 days of incubation with the inhibitor.
(§3) • Cells plated at […] in 100 μl medium+5% FCS (+Adds^1): • Cells incubated overnight: • Titrate inhibitors in a fresh plate in 150 μl medium • Transfer 100 μl titrated compounds to matching wells of the cell plate. • Incubate a further 4 days: • Add 10 μl MTS^2 or MTT^3 for 1.5 to 2 hours and read on Multiscanner (wavelengths 492/690) ^1 Additives for culture of LIM cell lines: 10 μM thioglycerol, 0.025 U/ml insulin, 1 μg/ml hydrocortisone. ^2 3-(4,5-dimethylthiazol-2-yl)-5-(3-carboxymethoxyphenyl)-2-(4-sulfophenyl)-2H-tetrazolium. ^3 3-(4,5-Dimethylthiazol-2-yl)-2,5-diphenyltetrazolium bromide
(§4) Cells are trypsinized and washed ×2 in medium+5% FCS and plate out at 10^4 cells per well in 100 μl.
(§5) Incubate plates o/n 37° C.+5%-10% CO2 incubator.
(§6) Inhibitors are dissolved in DMSO to make 10 mM stocks and titrated in a 96 well plate in duplicate to use as the stock for the test plate. […]
(§7) Read OD of plates on Thermo Multiskan Ex, at 560/690 nm.

MCF-7 [2] = assay: MTT cell proliferation assay, MCF-7; type: cell-based; conditions: MCF7, 72 h; MCF-7 human breast carcinoma; MTT after 3 days of incubation; read-out: IC50, inhibition of proliferation
Method: as §2, §3, §4, §5, §6, §7

[3] = Pharmacokinetics of Compound 2 in mouse plasma (RP-HPLC); type: in vivo; conditions: mice
Method: FIG. 6: Plots of plasma concentrations of compound 2 in mice following a single subcutaneous dose of 50 mg/kg. Each point corresponds to an individual mouse. A: Semi-log plot of calculated concentrations of Peak 1 values. B: Semi-log plot of values including all metabolite peaks. C: Mean and se values comparing Peak 1 only with all peaks.
The pharmacokinetic parameters for Compound 2 were determined following injection into mice.
Mouse blood was collected by cardiac puncture after anaesthesia by CO2 gas. Mice were subsequently euthanized. The blood was transferred to an EDTA tube to prevent clotting and the plasma collected after separation by centrifugation. For each sample 25 μl Plasma Was Added To 75 μl Cold 0.1% TFA (v/v) With 5 μM Hydrocortisone (HC) As an internal standard. These processed samples were stored at −20° C. until required. On thawing they were clarified by centrifugation and the extracts were analyzed on RP-HPLC.
Each 100 μl plasma extract was separated on a Zorbax SB-C18, 2.1×150 mm, 5μ column using a linear 50 min gradient of acetonitrile in 0.1% (v/v) TFA at a flow rate of 0.1 ml per minute and a column temperature of 45° C. Detection was at 250 nm.
The concentration of drug in the plasma was determined by the internal standard method of calibration by comparing the ratios of drug to HC peak areas relative to the known standards. Plasma concentrations of compound 2 in the mice from one pharmacokinetics experiment are plotted in FIG. 6

BaF/3 cells = assay: Anti-mitotic effects of metabolites recovered from mouse plasma (G2/M, FACS); type: cell-based, murine; conditions: BaF3, 24 hr, FACS with Propidium Iodide, concentration of recovered peaks difficult to quantify, read-out: IC50 (G2/M block) of peaks recovered from mouse plasma
Method: FIG. 5: Anti-mitotic effects of metabolites recovered from mouse plasma after compound 2 injection. BaF/3 cells were incubated for 24 hr with increasing amounts of each reconstituted peak. Cell cycle distribution was assessed by FACS analysis using Propidium Iodide. The percentage of cells in the G2/M phase of the cell cycle was determined using ModFi
The mouse plasma was fractionated on RP-HPLC and the peaks indicated above were collected. The pooled peak samples were concentrated by lyophilization. A portion of each peak sample was reconstituted in culture media for bioassay (FIG. 5). The remainder was analyzed by LC-MS to confirm the mass and identify the structures.

[4] = system: U87MG(Δ2-7) (brain cancer cell line) tumours; assay: Tumor xenograft study with U87MG(Δ2-7); type: in vivo, Balb/c nu/nu mice
Method: FIG. 8: U87MG(Δ2-7) tumor growth in nude mice. Tumor diameters were measured with external callipers every three days and tumor volume calculated with the formula: π/6×(L×W2).
Mice: Balb/c nu/nu male; 8 controls and 8 treated.
Cells inoculated: U87MG(Δ2-7) at 2.13×10^6 cells/tumour; two tumours per mouse.
Dose: Compound 2 at 20 mg/kg=100 μl of 4 mg/ml in water for injection per 20 g mouse. Control mice were injected with 100 μl water for injection.
Treatment and monitoring: Treatment commenced at Day 5 after inoculation. Mice were injected SC in abdomen three times per week (Mon, Wed, Fri), on alternating sides. Mice were weighed, tumour diameters measured in two dimensions and the health of the mice was monitored.
After mice were sacrificed: the tumours were dissected and weighed; spleens and livers were also weighed.

[5] = 20 mg/kg SC three times per week, post mortem

For `COc1ccc(CNc2nc(NCc3ccc(CN)cc3)nc(NN3CC(=O)NC3=O)n2)cc1` (single isomer, unassigned) [Compound 2, 1-[4-(4-aminomethyl-benzylamino)-6-(4-methoxybenzylamino)-{1,3,5}-triazin-2-yl-amino]-imidazolidine-2,4-dione], the “% of Taxol (proportion of cells in G2M test/proportion of cells in G2M Taxol)” value (SW480; 24 hrs, standard 1 μM Taxol) was 113%, the pIC50 (SW480; Homo sapiens, inhibitors added to cells in log-growth for 24 hrs, read-out: IC50 for progression through the cell cycle) was 6.60 and the “% of Taxol (proportion of cells in G2M test/proportion of cells in G2M Taxol)” value (MCF-7 [1]; 24 hrs, standard 1 μM Taxol) was 102%. For the same compound, the pIC50 (MCF-7 [1]; Homo sapiens, MCF7, inhibitors added to cells in log-growth for 24 hrs, read-out: IC50 for progression through the cell cycle) was 8.05, the pIC50 (MDA-MB-231) was 8.00 and the pIC50 (MCF-7 [2]) was 8.00. For the same compound, the “Time therapeutically significant concentrations are maintained in the serum” value [3] was “up to 10 hr”, the “Plateau concentration in the blood stream” value ([3]; 50 mg/kg in aqueous solution, single subcutaneous dose) was 60 µM and the “Level remaining in the blood stream for 6-10 hours” value ([3]; 50 mg/kg in aqueous solution, for 6-10 hours) was “up to 6 μM”. The half-life ([3]; mouse, plasma, subcutaneous, 50 mg/kg in aqueous solution, read-out: Elimination half-life (converted)) was roughly 1.5 h, the pIC50 (BaF/3 cells) was 7.00 and the “Tumour growth (tumour volume)” value ([4]; 20 mg/kg SC three times per week from day 5, terminated at 14 days) was “significant difference in volume between control and treated tumours; also recorded: reduced the growth of the tumours”. For the same compound, the “Liver or spleen weights vs vehicle control” value [4, 5] was “no significant difference” and the Tumor weight [4, 5] was “greatly reduced”.

Source: patent US8835629B2, “Anti-cancer agents” (The Walter and Eliza Hall Institute of Medical Research, priority 2010, dated 2014)
